The subject of one assay is DBTRG cells. As to the kind of experiment: Soft agar anchorage independent assay. Format: cell-based. The following applies: 504 h; DBTRG colonies scored 3 weeks after plating; range over the listed examples, given with mixed units nM and μM. The procedure:
DBTRG cells were seeded into a 24-well format in the presence of […] carrier alone or compound (0.6% DMSO (v/v)). Each well is composed of two agar layers: the bottom layer consists of 0.6% Agar while the top has 0.35% Agar plus cells and compound. Cells (2500 per well) were incubated with […] dilution compound the day of the plating and the colonies were scored 3 weeks later after o/n staining with MTT solution. Imaging and counting of the colonies was done with the GelCount™ instrument (Oxford Optronix, UK). For IC50 determination the data were expressed as % of control, values were calculated using XLFit version 4.2, with a four parameters sigmoid 5 function (XLFit model 205).

Another assay relates to Wnt/β-catenin pathway. Put plainly: Wnt reporter assay (TCF-Luciferase, Firefly) in DBTRG-05MG cells. Format: cell-based. As to conditions: Homo sapiens, TCF-Luciferase (Firefly) read out, 24 hours after compound addition, range given with mixed units nM and μM, read-out: IC50 value in the reporter assay. A digest of the protocol:
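DBTRG-05MG cells carrying a 3×(4×TCF)-driven Firefly luciferase reporter, with Renilla also read, were plated 36 h before an 8-point compound dilution series (0.6% DMSO). Lysis and Dual-Luciferase readout followed 24 h after compound addition. Firefly and Renilla were each expressed as % of control and fitted to a four-parameter sigmoid.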
A general note: A reporter such as luciferase makes a cellular process visible.

Turning to `COCCOc1ccc2c(c1)n(C[C@H]1CC[C@H](C(=O)N3CCN(C(C)=O)CC3)CC1)c(=O)n2C` [Example 71], the IC50 (as a rule, the concentration that gives 50% inhibition) fell in the range of 32 to 2900 nM with DBTRG cells and 35 to 23000 nM in the assay with Wnt/β-catenin pathway.
Take `COc1cc2c(cc1F)n(C)c(=O)n2C[C@H]1CC[C@H](C(=O)N2CCN(C(C)=O)CC2)CC1` [Example 161]: the IC50 in the assay on DBTRG cells was 32 to 2900 nM; with Wnt/β-catenin pathway, 35 to 23000 nM.
The corresponding values for `Cn1c(=O)n(C[C@H]2CC[C@H](C(=O)Nc3ccncc3)CC2)c2cc(OCCN3CCOCC3)ccc21` [Example 152] are 32 to 2900 nM and 35 to 23000 nM.
As for `COc1cc2c(cc1F)n(C)c(=O)n2C[C@H]1CC[C@H](c2nnc(-c3cnn(C)c3)o2)CC1` [Example 182], the IC50 was 32 to 2900 nM in the assay on DBTRG cells and 35 to 23000 nM in the assay with Wnt/β-catenin pathway.
Consider `COCCOc1cc2c(cc1F)n(C)c(=O)n2C[C@H]1CC[C@H](c2nnc(-c3cnn(C)c3)o2)CC1` [Example 185], for which the IC50 in the assay on DBTRG cells was in the range of 32 to 2900 nM; in the assay on Wnt/β-catenin pathway, 35 to 23000 nM.
For `COc1ccc2c(c1)n(C[C@H]1CC[C@H](C(=O)Nc3ccncc3)CC1)c(=O)n2C` [Example 29], in that order: 32 to 2900 nM and 35 to 23000 nM.
The corresponding values for `COCCOc1ccc2c(c1)n(C[C@H]1CC[C@H](C(=O)Nc3ccnnc3)CC1)c(=O)n2C` [Example 121] are 32 to 2900 nM and 35 to 23000 nM.
On to `COc1cc2c(cc1F)n(C)c(=O)n2C[C@H]1CC[C@H](C(=O)Nc2ccncc2)CC1` [Example 1, Trans-4-(5-Fluoro-6-Methoxy-3-methyl-2-oxo-2,3-dihydro-benzoimidazol-1-ylmethyl)-cyclohexanecarboxylic acid pyridine-4-ylamide], for which the half-maximal inhibitory concentration (IC50) in the assay on DBTRG cells lay in the range of 32 to 2900 nM; in the assay on Wnt/β-catenin pathway, 35 to 23000 nM.
Consider `COCC#Cc1ccc2c(n1)n(C[C@H]1CC[C@H](C(=O)Nc3ccncc3)CC1)c(=O)n2C` [Example 115], for which the IC50 in the assay on DBTRG cells fell in the range of 32 to 2900 nM; in the assay with Wnt/β-catenin pathway it was 35 to 23000 nM.
Turning to `COc1ccc2c(c1)n(C[C@H]1CC[C@H](C(=O)N3C[C@@H](C)O[C@@H](C)C3)CC1)c(=O)n2C` [Example 61], the IC50 with DBTRG cells lay within 32 to 2900 nM; in the assay on Wnt/β-catenin pathway it was 35 to 23000 nM.
The corresponding values for `C#Cc1ccc2c(c1)n(C[C@H]1CC[C@H](C(=O)N3CCN(C(C)=O)CC3)CC1)c(=O)n2C` [Example 14, 3-[trans-4-(4-Acetyl-piperazine-1-carbonyl)-cyclohexylmethyl]-5-ethynyl-1-methyl-1,3-dihydro-benzoimidazol-2-one] are 32 to 2900 nM and 35 to 23000 nM.
As for `CC(=O)N1CCN(C(=O)[C@H]2CC[C@H](Cn3c(=O)n(C)c4ccc(C5CC5)cc43)CC2)CC1` [Example 68], the IC50 in the assay with DBTRG cells is 32 to 2900 nM; with Wnt/β-catenin pathway it was 35 to 23000 nM.
On to `COCCOc1cc2c(cc1F)n(C)c(=O)n2C[C@H]1CC[C@H](C(=O)Nc2ccncc2)CC1` [Example 186], for which the IC50 in the assay on DBTRG cells was in the range of 32 to 2900 nM; in the assay with Wnt/β-catenin pathway it was 35 to 23000 nM.
As for `Cn1c(=O)n(C[C@H]2CC[C@H](C(=O)Nc3ccncc3)CC2)c2cc(C(F)(F)F)ccc21` [Example 22], the IC50 lay in the range of 32 to 2900 nM in the assay with DBTRG cells and 35 to 23000 nM in the assay with Wnt/β-catenin pathway.
For `COCCOc1ccc2c(c1)n(C[C@H]1CC[C@H](C(=O)Nc3ccncc3)CC1)c(=O)n2C` [Example 72], in that order: 32 to 2900 nM and 35 to 23000 nM.
For `COc1ccc2c(c1)n(C[C@H]1CC[C@H](c3cc(-c4cnn(C)c4)n[nH]3)CC1)c(=O)n2C` [Example 153], in that order: 32 to 2900 nM and 35 to 23000 nM.
For `COc1ccc2c(c1)n(C[C@H]1CC[C@H](c3nnc(-c4cnn(C)c4)o3)CC1)c(=O)n2C` [Example 106], in that order: 32 to 2900 nM and 35 to 23000 nM.
For the compound `Cn1c(=O)n(C[C@H]2CC[C@H](C(=O)Nc3ccnc(N4CCOCC4)c3)CC2)c2cccc(Cl)c21` [Example 43], the IC50 in the assay with Wnt/β-catenin pathway lay within 35 to 23000 nM.
Still for that read-out and setting: as for `COc1ccc2c(c1)n(C[C@H]1CC[C@H](C(=O)N3CCN(c4ccncc4)CC3)CC1)c(=O)n2C` [Example 76], the figure is 35 to 23000 nM.
Take `COc1ccc2c(c1)n(C[C@H]1CC[C@H](C(=O)Nc3ccc(OC)nc3)CC1)c(=O)n2C` [Example 31]: in the assay with Wnt/β-catenin pathway, the IC50 lay within 35 to 23000 nM.
Take `COCCOc1ccc2c(c1)n(C[C@H]1CC[C@H](c3nnc(-c4cnn(C)c4)o3)CC1)c(=O)n2C` [Example 147]: the figures for the 50% inhibitory concentration (IC50) in the assay with DBTRG cells and in the assay with Wnt/β-catenin pathway were 32 to 2900 nM and 35 to 23000 nM, respectively.
For the compound `COCCOc1ccc2c(n1)n(C[C@H]1CC[C@H](c3nnc(-c4cnn(C)c4)o3)CC1)c(=O)n2C` [Example 180], the IC50 in the assay with Wnt/β-catenin pathway lay in the range of 35 to 23000 nM.
On to `COc1cc2c(cc1F)n(C)c(=O)n2C[C@H]1CC[C@H](C(=O)N2CCN(c3ncccn3)CC2)CC1` [Example 178], for which the IC50 in the assay on Wnt/β-catenin pathway fell in the range of 35 to 23000 nM.
Still for that read-out and setting: as for `COCCOc1ccc2c(n1)n(C[C@H]1CC[C@H](C(=O)Nc3ccncc3)CC1)c(=O)n2C` [Example 150], the figure is 35 to 23000 nM; as for `COc1ccc2c(c1)n(C[C@H]1CC[C@H](C(=O)Nc3cccc4oc(C5CC5)nc34)CC1)c(=O)n2C` [Example 67], 35 to 23000 nM.

The values above are taken from patent publication US20140005164A1, “WNT PATHWAY ANTAGONISTS” (Siena Biotech S.p.A., priority 2011, published 2014).
